# Data taken from patent US4444767A, “Derivatives of 3-amino-pregn-5-ene” (Roussel Uclaf, priority 1981, dated 1984).
# Counter-ions that a name gives are not always drawn.
# Tests used:
# immunitary systems = assay: Test of Rosettes to sheep red corpuscles; type: in vivo; settings: Rattus norvegicus, Splenocyte; 3 month old male rats, oral daily from day -1 to day 1; splenocytes after 7 days; read-out: immunostimulating dose (dose which multiplies by 2 the percentage of rosettes observed in the control animals)
# Procedure: The administration to animals of a product capable of stimulating the immunitary systems leads to an increase of their capacity of reaction to the injection of a immunogenic product. 3 month old male rats were sensitized by intraperitoneal administration of sheep erythrocytoes on day 0 and 7 days later, the spleen was removed and splenocytes were placed in contact with sheep erythrocytes. The percentage of leucocytes around which the erythrocytes were in the form of rosettes was determined. The test compounds were orally administered daily from day-1 to day 1 and immunostimulating dose is the dose of product which multiplies by 2 the percentage of rosettes observed in the control animals.
# mice = assay: Acute toxicity; type: in vivo; settings: oral
compound,measurement,setting,value
"CC(=O)[C@H]1CC[C@H]2[C@@H]3CC=C4C[C@H](NC(=O)[C@H](C)N)CC[C@]4(C)[C@H]3CC[C@]12C [Example 3, (2S)-2-amino-N-(20-oxopregn-5-ene 3α-yl)propionamide hydrochloride]",ED (2-fold rosettes),immunitary systems,2 mg/kg
same,LD0 (maximum dose which did not cause any mortality after 8 days),mice,> 400 mg/kg
"CC(=O)[C@H]1CC[C@H]2[C@@H]3CC=C4C[C@H](NC(=O)CN)CC[C@]4(C)[C@H]3CC[C@]12C [Example 4, 2-amino N-(20 oxopregn-5-ene 3α-yl) acetamide hydrochloride]",ED (2-fold rosettes),immunitary systems,5 mg/kg
same,LD0 (maximum dose which did not cause any mortality after 8 days),mice,600 mg/kg
"C[C@H](O)[C@H]1CC[C@H]2[C@@H]3CC=C4C[C@H](NC(=O)CN)CC[C@]4(C)[C@H]3CC[C@]12C.Cl [Example 6, 2-amino-N-[(20S) 20-hydroxy-pregn-5-ene-3α-yl]-acetamide hydrochloride]",LD0 (maximum dose which did not cause any mortality after 8 days),mice,> 400 mg/kg
